What follows are compounds tested against human mGluR4 (Homo sapiens (Human), UniProt Q14833) (assay: mGluR4 potentiation assay, CHO cells transfected with human mGluR4, Ca2+-sensitive fluorescent dye, EC20 agonist). Settings: potentiation of mGluR4; table does not state human or rat receptor.
human mGluR4, sequence (Q14833 33-912): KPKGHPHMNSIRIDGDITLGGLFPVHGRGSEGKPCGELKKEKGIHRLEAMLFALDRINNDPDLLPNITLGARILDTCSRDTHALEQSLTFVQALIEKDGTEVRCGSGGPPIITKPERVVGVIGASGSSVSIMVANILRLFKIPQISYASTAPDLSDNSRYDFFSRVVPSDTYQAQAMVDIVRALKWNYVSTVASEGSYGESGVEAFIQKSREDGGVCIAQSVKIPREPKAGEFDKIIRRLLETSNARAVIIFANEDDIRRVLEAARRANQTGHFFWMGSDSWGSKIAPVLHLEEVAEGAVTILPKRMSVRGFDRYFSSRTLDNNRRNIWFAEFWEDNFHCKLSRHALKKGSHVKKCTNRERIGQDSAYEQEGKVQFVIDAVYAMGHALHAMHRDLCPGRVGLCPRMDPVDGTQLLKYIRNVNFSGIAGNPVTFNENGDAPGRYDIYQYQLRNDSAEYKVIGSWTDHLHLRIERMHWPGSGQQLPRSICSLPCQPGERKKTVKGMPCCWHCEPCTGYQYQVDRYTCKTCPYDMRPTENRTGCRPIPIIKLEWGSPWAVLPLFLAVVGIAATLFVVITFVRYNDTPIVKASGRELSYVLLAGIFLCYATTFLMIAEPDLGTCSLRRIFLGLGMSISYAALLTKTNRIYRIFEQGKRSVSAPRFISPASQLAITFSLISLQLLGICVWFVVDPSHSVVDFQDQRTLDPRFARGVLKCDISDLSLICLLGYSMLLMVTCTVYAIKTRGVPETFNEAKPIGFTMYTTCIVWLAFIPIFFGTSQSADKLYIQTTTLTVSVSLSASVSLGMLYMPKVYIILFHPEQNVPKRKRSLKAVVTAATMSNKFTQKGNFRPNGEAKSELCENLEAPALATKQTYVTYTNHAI
Format: cell-based
Method: The disclosed compounds and compositions can be evaluated for their ability to act as a potentiator of metabotropic glutamate receptor activity, in particular mGluR4 activity, by any suitable known methodology known in the art. For example, Chinese Hamster Ovary (CHO) cells transfected with human mGluR4 or HEK cells co-transfected with rat mGluR4 and the G-protein regulated Inwardly Rectifying Potassium channel (GIRK) were plated in clear bottom assay plates for assay in a Hamamatsu FDSS Fluorometric Plate Reader. The cells were loaded with either a Ca2+-sensitive fluorescent dye or the thallium responsive dye and the plates were washed and placed into a suitable kinetic plate reader. For human mGluR4 assays, a fluorescence baseline was established for 3-5 seconds, the disclosed compounds were then added to the cells, and the response in cells was measured. Approximately two and a half minutes later, a concentration of mGluR4 orthosteric agonist (e.g. glutamate or L-AP4) eliciting approximately 20% (EC20) of the maximal agonist response was added to the cells, and the response was measured. Two minutes later, a concentration of mGluR4 agonist (e.g. glutamate or L-AP4) eliciting 80% (EC80) of the maximal agonist response was added to the cells, and the response was measured. For rat mGluR4/GIRK experiments, a baseline was established for approximately five seconds, disclosed compounds were added, and either an EC20 or EC80 concentration of agonist was added approximately two and one half minutes later.
The above described assay operated in two modes. In the first mode, a range of concentrations of the disclosed compounds are added to cells, followed by a single fixed concentration of agonist. If the compound acts as a potentiatior, an EC50 value for potentiation and a maximum extent of potentiation by the compound at this concentration of agonist is determined by non-linear curve fitting. If the compound acts as a noncompetitive antagonist, an IC50 value is determined by non-linear curve fitting. In the second mode, several fixed concentrations of the disclosed compounds are added to various wells on a plate, followed by a range in concentrations of agonist for each concentration of disclosed compound. The EC50 values for the agonist at each concentration of compound are determined by non-linear curve fitting. A decrease in the EC50 value of the agonist with increasing concentrations of the sample compound (a leftward shift of the agonist concentration-response curve) is an indication of the degree of mGluR4 potentiation at a given concentration of the sample compound. A decrease in the maximal response of the agonist with increasing concentrations of the sample compounds, with or without a rightward shift in agonist potency, is an indication of the degree of noncompetitive antagonism at mGluR4. The second mode also indicates whether the sample compounds also affect the maximum response to mGluR4 to agonists.
Work on CN1C(=O)N(c2ccc(Nc3n[nH]c4cccnc34)cc2Cl)C(=O)C1C(C)(C)C (stereo not drawn) [Example 35, 3-(4-((1H-pyrazolo[4,3-b]pyridin-3-yl)amino)-2-chlorophenyl)-5-(tert-butyl)-1-methylimidazolidine-2,4-dione] yielded an EC50 of 753 nM. Work on Clc1ccnc(Nc2n[nH]c3cccnc23)c1 [Example 13, N-(4-chloropyridin-2-yl)-1H-pyrazolo[4,3-b]pyridin-3-amine] yielded an EC50 of 284 nM. Compound COc1cccc(Nc2n[nH]c3cccnc23)c1 [Example 19, N-(3-methoxyphenyl)-1H-pyrazolo[4,3-b]pyridin-3-amine] has an EC50 of 169 nM. For CCc1cccc(Nc2n[nH]c3cccnc23)c1 [Example 60, N-(3-ethylphenyl)-1H-pyrazolo[4,3-b]pyridin-3-amine], the EC50 was 2580 nM. Clc1cncc(Nc2n[nH]c3cccnc23)n1 [Example 32, N-(6-chloropyrazin-2-yl)-1H-pyrazolo[4,3-b]pyridin-3-amine] showed an EC50 of 9990 nM. Work on Cn1ccc2ccc(Nc3n[nH]c4cccnc34)cc21 [Example 53, N-(1-methyl-1H-indol-6-yl)-1H-pyrazolo[4,3-b]pyridin-3-amine] yielded an EC50 of 3590 nM. In the case of CS(=O)(=O)c1cc(Nc2n[nH]c3cccnc23)ccc1F [Example 72, N-(4-fluoro-3-(methylsulfonyl)phenyl)-1H-pyrazolo[4,3-b]pyridin-3-amine], the EC50 is reported as 9100 nM. With Clc1ccc(Nc2n[nH]c3cccnc23)cn1 [Example 15, N-(6-chloropyridin-3-yl)-1H-pyrazolo[4,3-b]pyridin-3-amine] the EC50 was 5500 nM. In the case of Cc1cc(NC(=O)Nc2n[nH]c3cccnc23)ccc1F [Example 46, 1-(4-fluoro-3-methylphenyl)-3-(1H-pyrazolo[4,3-b]pyridin-3-yl)urea], the EC50 is reported as 6840 nM. c1ccc(Nc2n[nH]c3cccnc23)cc1 [Example 20, N-phenyl-1H-pyrazolo[4,3-b]pyridin-3-amine] showed an EC50 of 1440 nM. Clc1ccc(Nc2n[nH]c3cccnc23)cc1Cl [Example 68, N-(3,4-dichlorophenyl)-1H-pyrazolo[4,3-b]pyridin-3-amine] gave an EC50 of 113 nM. Work on O=C(c1ccccc1F)c1ccc(Nc2n[nH]c3cccnc23)cc1Cl [Example 88, (4-((1H-pyrazolo[4,3-b]pyridin-3-yl)amino)-2-chlorophenyl)(2-fluorophenyl)methanone] yielded an EC50 of 311 nM. In the case of Cc1ccc(F)c(Nc2n[nH]c3cccnc23)c1 [Example 84, N-(2-fluoro-5-methylphenyl)-1H-pyrazolo[4,3-b]pyridin-3-amine], the EC50 is reported as 314 nM. Work on Fc1ccc(Nc2n[nH]c3cccnc23)cc1F [Example 5, N-(3,4-difluorophenyl)-1H-pyrazolo[4,3-b]pyridin-3-amine] yielded an EC50 of 644 nM. Work on Fc1ccc(Nc2n[nH]c3cccnc23)cc1C(F)(F)F [Example 71, N-(4-fluoro-3-(trifluoromethyl)phenyl)-1H-pyrazolo[4,3-b]pyridin-3-amine] yielded an EC50 of 385 nM. With Clc1cccc(Nc2c[nH]c3cccnc23)c1 [Example 25, N-(3-chlorophenyl)-1H-pyrrolo[3,2-b]pyridin-3-amine] the EC50 was 6360 nM. Work on Clc1cc(Nc2n[nH]c3cccnc23)ccn1 [Example 23, N-(2-chloropyridin-4-yl)-1H-pyrazolo[4,3-b]pyridin-3-amine] yielded an EC50 of 1490 nM. Cc1ccc(Nc2n[nH]c3cccnc23)cc1Cl [Example 83, N-(3-chloro-4-methylphenyl)-1H-pyrazolo[4,3-b]pyridin-3-amine] gave an EC50 of 165 nM. Fc1cc(F)c(F)c(Nc2n[nH]c3cccnc23)c1 [Example 57, N-(2,3,5-trifluorophenyl)-1H-pyrazolo[4,3-b]pyridin-3-amine] showed an EC50 of 782 nM. With Fc1ccc(Nc2n[nH]c3cccnc23)cc1 [Example 65, N-(4-fluorophenyl)-1H-pyrazolo[4,3-b]pyridin-3-amine] the EC50 was 1420 nM. For CS(=O)(=O)c1ccc(Nc2n[nH]c3cccnc23)cc1Cl [Example 56, N-(3-chloro-4-(methylsulfonyl)phenyl)-1H-pyrazolo[4,3-b]pyridin-3-amine], the EC50 was 7860 nM. With c1cnc2c(Nc3cncnc3)n[nH]c2c1 [Example 39, N-(pyrimidin-5-yl)-1H-pyrazolo[4,3-b]pyridin-3-amine] the EC50 was 8990 nM. Work on COc1ccc(Nc2n[nH]c3cccnc23)cc1Cl [Example 8, N-(3-chloro-4-methoxyphenyl)-1H-pyrazolo[4,3-b]pyridin-3-amine] yielded an EC50 of 282 nM. FC(F)(F)c1ccc(Nc2n[nH]c3cccnc23)cc1Cl [Example 22, N-(3-chloro-4-(trifluoromethyl)phenyl)-1H-pyrazolo[4,3-b]pyridin-3-amine] showed an EC50 of 2150 nM. For Clc1cc(Nc2n[nH]c3cccnc23)cc(Cl)c1Cl [Example 42, N-(3,4,5-trichlorophenyl)-1H-pyrazolo[4,3-b]pyridin-3-amine], the EC50 was 721 nM. For Fc1cncc(Nc2n[nH]c3cccnc23)c1 [Example 4, N-(5-fluoropyridin-3-yl)-1H-pyrazolo[4,3-b]pyridin-3-amine], the EC50 was 9180 nM. Work on Fc1cc(F)cc(Nc2n[nH]c3cccnc23)c1 [Example 85, N-(3,5-difluorophenyl)-1H-pyrazolo[4,3-b]pyridin-3-amine] yielded an EC50 of 101 nM. FC(F)Oc1cccc(Nc2n[nH]c3cccnc23)c1 [Example 9, N-(3-(difluoromethoxy)phenyl)-1H-pyrazolo[4,3-b]pyridin-3-amine] gave an EC50 of 254 nM. Cc1cc(Nc2n[nH]c3cccnc23)ccc1Cl [Example 7, N-(4-chloro-3-methylphenyl)-1H-pyrazolo[4,3-b]pyridin-3-amine] showed an EC50 of 164 nM. Oc1ccc(Nc2n[nH]c3cccnc23)cc1F [Example 73, 4-((1H-pyrazolo[4,3-b]pyridin-3-yl)amino)-2-fluorophenol] was tested, and the EC50 was 349 nM. N#Cc1ccc(Nc2n[nH]c3cccnc23)cc1Cl [Example 21, 4-((1H-pyrazolo[4,3-b]pyridin-3-yl)amino)-2-chlorobenzonitrile] showed an EC50 of 93 nM. Fc1cc(Nc2n[nH]c3cccnc23)ccc1Oc1ccc(Cl)cn1 [Example 76, N-(4-((5-chloropyridin-2-yl)oxy)-3-fluorophenyl)-1H-pyrazolo[4,3-b]pyridin-3-amine] gave an EC50 of 151 nM. FC(F)(F)c1cc(Nc2n[nH]c3cccnc23)cc(C(F)(F)F)c1 [Example 67, N-(3,5-bis(trifluoromethyl)phenyl)-1H-pyrazolo[4,3-b]pyridin-3-amine] showed an EC50 of 3050 nM. Fc1ccc(Nc2n[nH]c3nccnc23)cc1Cl [Example 28, N-(3-chloro-4-fluorophenyl)-1H-pyrazolo[3,4-b]pyrazin-3-amine] showed an EC50 of 156 nM. For Cn1nc2cccnc2c1Nc1ccc(F)c(Cl)c1 [Example 59, N-(3-chloro-4-fluorophenyl)-2-methyl-2H-pyrazolo[4,3-b]pyridin-3-amine], the EC50 was 11900 nM. Fc1ccc(CNc2n[nH]c3cccnc23)cc1Cl [Example 51, N-(3-chloro-4-fluorobenzyl)-1H-pyrazolo[4,3-b]pyridin-3-amine] gave an EC50 of 7080 nM. For Fc1cc(Nc2n[nH]c3cccnc23)cc(C(F)(F)F)c1 [Example 62, N-(3-fluoro-5-(trifluoromethyl)phenyl)-1H-pyrazolo[4,3-b]pyridin-3-amine], the EC50 was 217 nM. With Clc1cccc(Nc2n[nH]c3cccnc23)c1 [Example 1, N-(3-chlorophenyl)-1H-pyrazolo[4,3-b]pyridin-3-amine] the EC50 was 138 nM. For c1cnc2c(NCC3CCCCC3)n[nH]c2c1 [Example 49, N-(cyclohexylmethyl)-1H-pyrazolo[4,3-b]pyridin-3-amine], the EC50 was 5300 nM. Compound Clc1cc(Nc2n[nH]c3cccnc23)cnc1N1CCOCC1 [Example 30, N-(5-chloro-6-morpholinopyridin-3-yl)-1H-pyrazolo[4,3-b]pyridin-3-amine] has an EC50 of 2380 nM. For Cc1cncc(Nc2n[nH]c3cccnc23)c1 [Example 33, N-(5-methylpyridin-3-yl)-1H-pyrazolo[4,3-b]pyridin-3-amine], the EC50 was 7380 nM. Compound Oc1ccc(Nc2n[nH]c3cccnc23)cc1Cl [Example 36, 4-((1H-pyrazolo[4,3-b]pyridin-3-yl)amino)-2-chlorophenol] has an EC50 of 217 nM. In the case of Cc1ccc(Cl)cc1Nc1n[nH]c2cccnc12 [Example 78, N-(5-chloro-2-methylphenyl)-1H-pyrazolo[4,3-b]pyridin-3-amine], the EC50 is reported as 410 nM. With Fc1ccc(Nc2n[nH]c3cncnc23)cc1Cl [Example 26, N-(3-chloro-4-fluorophenyl)-1H-pyrazolo[4,3-d]pyrimidin-3-amine] the EC50 was 3070 nM. In the case of Fc1cc(Nc2n[nH]c3cccnc23)cc(F)c1F [Example 80, N-(3,4,5-trifluorophenyl)-1H-pyrazolo[4,3-b]pyridin-3-amine], the EC50 is reported as 146 nM.
